Experimental data: patent US20130040306A1, “BACKSCATTERING INTERFEROMETRIC ANALYSIS OF MEMBRANE MATERIALS” (priority 2011, published 2013)
Entries after “also recorded” stand apart in the source; their conditions may differ.

Legend:
[1] = biological target: T1, albumin (Homo sapiens, UniProt P02768); assay: BSI small molecule binding to albumin in the absence of lipid
Source text: (§1) For the backscattering interferometry experiments, large-unilamellar lipid vesicles are generated via extrusion for use in interfacial kinetic studies. The composition generally includes 86% mol neutral diluent (36:2 PE or 36:2 PG), 5% mol PI(4,5)P2, and 8% mol 32:0 PC. Following extrusion, bulk lipid concentration is confirmed via quantitative LC/MS. A HeNe laser beam is then directed at a sample in the channel of a microfluidic chip, resulting in an interference fringe pattern that is detected by the CCD camera. This fringe pattern shifts spatially as the refractive index (RI) of the sample changes; these shifts are translated into a numerical change in phase of the corresponding Fourier transformation. The absolute value of the magnitude in phase change corresponds to the change in solvation/hydration of the protein upon binding ligand, and can be used to plot a ligand binding curve. This inventive BSI technique can also accurately and reproducibly measure protein-lipid binding. […]
(§2) BSI was used to measure Kd of two VU-series compounds for albumin in the absence of lipid. […] As another control to confirm that vesicle composition is not disrupted due to small molecule treatment, Kd and Ks are measured for PLCδ1, which binds PIP2 at both its PH and catalytic domains.

[2] = biological target: T1, albumin; assay: BSI lipid binding (Ks) with albumin after small molecule treatment; conditions: small molecule treatment vs vehicle
Source text: as §1, with “curve.” for “curve. This inventive BSI technique can also accurately and reproducibly measure protein-lipid binding.”
(§3) BSI can also be used to measure changes in lipid binding affinities due to small molecule treatment. BSI-derived values can be compared to Ks values determined using classic biochemical methods.
as §2

[3] = preliminary DMPK plasma protein studies; assay type: in vitro ADME
[4] = biological target: T2, PLCδ1 (Homo sapiens, UniProt P51178); assay: BSI small molecule binding (Kd) to PLCδ1 control; conditions: control protein
T2 sequence (P51178 1-756): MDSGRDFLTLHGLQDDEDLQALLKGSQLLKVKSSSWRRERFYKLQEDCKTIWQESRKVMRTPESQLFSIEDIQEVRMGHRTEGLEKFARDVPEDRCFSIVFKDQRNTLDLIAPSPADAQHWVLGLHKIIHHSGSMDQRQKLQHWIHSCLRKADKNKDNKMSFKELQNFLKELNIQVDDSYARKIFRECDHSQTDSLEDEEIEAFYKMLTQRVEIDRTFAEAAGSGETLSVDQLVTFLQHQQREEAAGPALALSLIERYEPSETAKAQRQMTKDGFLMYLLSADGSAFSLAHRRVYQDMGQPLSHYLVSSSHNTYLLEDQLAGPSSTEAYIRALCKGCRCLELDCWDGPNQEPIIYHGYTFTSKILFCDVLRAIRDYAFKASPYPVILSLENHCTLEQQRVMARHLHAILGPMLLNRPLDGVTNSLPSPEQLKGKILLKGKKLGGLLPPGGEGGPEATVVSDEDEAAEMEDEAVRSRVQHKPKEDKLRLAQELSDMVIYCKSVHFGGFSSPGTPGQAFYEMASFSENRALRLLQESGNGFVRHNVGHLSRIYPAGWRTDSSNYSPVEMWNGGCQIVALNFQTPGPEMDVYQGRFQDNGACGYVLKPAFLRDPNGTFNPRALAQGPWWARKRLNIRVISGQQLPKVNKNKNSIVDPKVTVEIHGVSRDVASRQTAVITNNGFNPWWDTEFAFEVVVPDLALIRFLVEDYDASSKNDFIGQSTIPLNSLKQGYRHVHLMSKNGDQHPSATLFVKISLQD
Source text: as §1, §2

[5] = biological target: T2, PLCδ1; assay: BSI lipid binding (Ks) of PLCδ1 after small molecule treatment; conditions: small molecule treatment vs vehicle
Source text: as §1, §2

[6] = biological target: T3, PLD1.d311 (Homo sapiens, UniProt Q13393); assay: in vitro PLD activity assay (release of tritiated choline headgroup, lipid vesicles); assay type: biochemical; conditions: for IC50: in vitro PLD activity assay
T3 construct: an amino-terminally-truncated and catalytically active construct; made in house; host or cells: SF21 insect cells
T3 sequence (Q13393 312-1074 limits assumed): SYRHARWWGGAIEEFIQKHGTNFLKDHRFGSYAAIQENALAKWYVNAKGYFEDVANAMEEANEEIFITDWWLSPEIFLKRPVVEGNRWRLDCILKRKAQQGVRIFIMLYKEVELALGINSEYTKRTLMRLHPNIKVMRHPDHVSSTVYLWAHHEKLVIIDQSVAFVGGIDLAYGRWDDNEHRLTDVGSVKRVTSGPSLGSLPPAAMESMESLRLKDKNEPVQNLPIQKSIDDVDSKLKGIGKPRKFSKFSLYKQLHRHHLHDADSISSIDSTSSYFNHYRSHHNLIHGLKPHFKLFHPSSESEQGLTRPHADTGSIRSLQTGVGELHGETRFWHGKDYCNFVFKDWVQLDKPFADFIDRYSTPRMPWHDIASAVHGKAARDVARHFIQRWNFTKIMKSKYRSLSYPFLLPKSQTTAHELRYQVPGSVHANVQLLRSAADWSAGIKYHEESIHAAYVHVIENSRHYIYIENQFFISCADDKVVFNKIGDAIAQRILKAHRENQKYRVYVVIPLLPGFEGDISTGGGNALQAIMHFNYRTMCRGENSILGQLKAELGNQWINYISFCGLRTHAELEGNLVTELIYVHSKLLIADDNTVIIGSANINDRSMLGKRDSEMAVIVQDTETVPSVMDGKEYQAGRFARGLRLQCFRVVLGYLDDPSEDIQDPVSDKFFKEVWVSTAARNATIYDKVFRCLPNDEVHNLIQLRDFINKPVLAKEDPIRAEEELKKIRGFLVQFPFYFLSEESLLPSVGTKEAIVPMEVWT
Protocol: In vitro activity assays can be performed to measure changes in Km, and Vmax due to small molecule inhibition. This reconstitution assay uses large unilamellar vesicles (generated by extrusion of defined % mol amounts of purified lipid species) incubated with purified PLD and measures the release of a tritiated choline headgroup as a readout of catalytic activity.
Concentration response curves were generated in a radioisotopically labelled activity assay for three VU-series compounds and tungstate with N-myr-Arf1 activated PLD1.d311. Ki measurements of these inhibitors were obtained using BSI.

[7] = biological target: T4, PLD1c.d311 (Homo sapiens, UniProt Q13393); assay: BSI small molecule binding to purified PLD1c.d311 in the absence of lipid; conditions: for direct binding to purified PLD1c.d311 by BSI: absence of lipid
T4 construct: an amino-terminally-truncated and catalytically active construct; made in house; host or cells: SF21 insect cells
T4 sequence (Q13393 312-1074 limits assumed): T3 sequence (Q13393 312-1074 limits assumed)
Source text: Protein constructs that are composed of different domains of the enzyme are thus used to determine the approximate site of small molecule interaction. The bulk of the studies performed thus far use human PLD1c.d311, an amino-terminally-truncated and catalytically active construct that has robust expression in SF21 insect cells, and can be purified to homogeneity over a single affinity chromatography step. This construct does retain a small portion of the pleckstrin homology domain that is necessary for catalytic activity of the enzyme (reason for this is unknown).
Binding studies are performed using backscattering interferometry (BSI), which can be performed on an efficient nanoscale level with a picomolar limit of detection, and can be used to measure Ki and Ks values for inhibitor-treated purified protein.
For the backscattering interferometry experiments, large-unilamellar lipid vesicles are generated via extrusion for use in interfacial kinetic studies. The composition generally includes 86% mol neutral diluent (36:2 PE or 36:2 PG), 5% mol PI(4,5)P2, and 8% mol 32:0 PC. Following extrusion, bulk lipid concentration is confirmed via quantitative LC/MS. A HeNe laser beam is then directed at a sample in the channel of a microfluidic chip, resulting in an interference fringe pattern that is detected by the CCD camera. This fringe pattern shifts spatially as the refractive index (RI) of the sample changes; these shifts are translated into a numerical change in phase of the corresponding Fourier transformation. The absolute value of the magnitude in phase change corresponds to the change in solvation/hydration of the protein upon binding ligand, and can be used to plot a ligand binding curve. This inventive BSI technique can also accurately and reproducibly measure protein-lipid binding. This technique measures small shifts in RI phase (limit of sensitivity is picomolar) and requires only nanomolar concentrations of protein and ligand in a 1 μl volume channel.

[8] = biological target: T4, PLD1c.d311; assay: BSI interfacial lipid binding affinity (Ks) of PLD after small molecule treatment; conditions: small molecule treated enzyme
Source text: Eukaryotic PLD is an interfacial enzyme that, in the classic model, binds the lipid surface via interaction with PI(4,5)P2 prior to hydrolyzing substrate. […] In order to study PLD, the interfacial binding affinity must first be measured (Ks), and subsequent studies must saturate lipid binding to force application of Michaelis-Menten kinetics.
as §1, with “transformation.” for “transformation. The absolute value of the magnitude in phase change corresponds to the change in solvation/hydration of the protein upon binding ligand, and can be used to plot a ligand binding curve. This inventive BSI technique can also accurately and reproducibly measure protein-lipid binding.”
as §3

T1 sequence (P02768 25-609, species assumed): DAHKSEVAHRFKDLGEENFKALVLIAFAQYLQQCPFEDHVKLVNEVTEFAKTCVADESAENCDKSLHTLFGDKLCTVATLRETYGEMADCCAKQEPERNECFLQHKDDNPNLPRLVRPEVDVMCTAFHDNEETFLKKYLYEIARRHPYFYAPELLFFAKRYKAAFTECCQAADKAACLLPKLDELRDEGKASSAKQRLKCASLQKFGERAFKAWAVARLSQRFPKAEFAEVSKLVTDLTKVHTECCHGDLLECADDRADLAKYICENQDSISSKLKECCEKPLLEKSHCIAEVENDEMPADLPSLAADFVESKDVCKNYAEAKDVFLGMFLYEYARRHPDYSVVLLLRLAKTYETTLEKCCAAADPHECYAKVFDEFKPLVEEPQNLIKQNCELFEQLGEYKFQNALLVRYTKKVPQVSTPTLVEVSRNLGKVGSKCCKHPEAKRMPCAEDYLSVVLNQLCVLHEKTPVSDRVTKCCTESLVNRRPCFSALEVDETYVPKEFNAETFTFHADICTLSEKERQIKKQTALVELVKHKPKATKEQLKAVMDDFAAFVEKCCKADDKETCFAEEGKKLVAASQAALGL

C[C@@H](CN1CCC(n2c(=O)[nH]c3cc(Br)ccc32)CC1)NC(=O)[C@@H]1C[C@H]1c1ccccc1 [VU0359595]
binding to albumin by BSI [1]: bind albumin
Ks compared to vehicle (albumin control) [2]: disrupted compared to vehicle
plasma protein bound [3]: 98%
binding to PLCδ1 by BSI [4]: does not bind
Ks of PLCδ1 compared to vehicle [5]: does not show shifted Ks

O=C(c1ccc(OCCN2CCCCC2)cc1)c1c(-c2ccc(O)cc2)sc2cc(O)ccc12 [raloxifene]
PLD inhibition in vitro (in words) [6]: confirmed to be PLD inhibitors in vitro
IC50 [6]: 10 µM
direct binding to purified PLD1c.d311 by BSI [7]: directly binds the enzyme
direct binding to purified PLD1c.d311 by BSI ([7]; listed as Raloxifene): directly binds the enzyme in the absence of lipid
shift of Ks (interfacial lipid binding) of PLD [8]: shifting Ks; also recorded: shifts Ks

CC/C(=C(\c1ccccc1)c1ccc(OCCN(C)C)cc1)c1ccccc1 [tamoxifen]
PLD inhibition in vitro (in words) [6]: confirmed to be PLD inhibitors in vitro
IC50 [6]: 48 µM
direct binding to purified PLD1c.d311 by BSI [7]: does not bind
mechanism of PLD inhibition ([7]; concluded from BSI measurements): indirectly inhibit PLD activity

[O]=[W](=[O])([O-])[O-] [tungstate]
Ki (BSI) compared with IC50 (activity assay) ([7]; PLD1.d311, absence of lipid, vs IC50 with N-myr-Arf1 activated PLD1.d311): ≤ 2 fold
direct binding to purified PLD1c.d311 by BSI [7]: directly binds the inhibitors in the absence of lipid
